Measured values reported in patent publication US8173840B2, “Compounds with high therapeutic index” (Signature R&D Holdings, LLC, priority 2003, dated 2012).
“And” between values parts separate entries of the source, which are not always exact repeats. Identical values can stand only once.

Tested on: rats
Assay: Hypolipidemic property, blood triglycerides in rats on high sugar diet
Assay type: in vivo, rat
Details: for anti-hyperlipidemic properties: compared with Fenofibrate; for Triglycerides, Day 7 / Triglycerides, Day zero / Triglycerides, Day 14: individual animals; for Triglycerides, Day 7: after 1 week high sugar diet, before drug; for Triglycerides, Day zero: before diet and drug; for Triglycerides, Day 14: drug day 7-14
Method: Rats were checked for time zero triglyceride level in blood. Then the rats were set on high sugar diet, such as 30% sucrose in water for 1 week. Then at the end of 1 week, rats were tested for triglycerides, and were put on normal diet. From day 7-14 the rats were administered either test or control drug. Triglycerides were again tested on the 14th day in rat blood.

SMILES	% Change From day 0 (Dose 25 mg/kg)	% Change from day 7 (Dose 25 mg/kg)	Absolute Change from day 0 (Dose 25 mg/kg)	Absolute Change from day 7 (Dose 25 mg/kg)	% Change From day 0 (Dose 50 mg/kg)	% Change from day 7 (Dose 50 mg/kg)	Absolute Change from day 0 (Dose 50 mg/kg)	Absolute Change from day 7 (Dose 50 mg/kg)	% Change From day 0 (Dose 100 mg/kg)	% Change from day 7 (Dose 100 mg/kg)	Absolute Change from day 0 (Dose 100 mg/kg)	Absolute Change from day 7 (Dose 100 mg/kg)	also measured
CC(C)(Oc1ccc(C(=O)c2ccc(Cl)cc2)cc1)C(=O)OC1CN[C@H](C(=O)O)C1.Cl (stereo partly drawn) [Fen-HP Ester, L-hydroxyproline-fenofibric acid ester, hydrochloride]	−32.92%	−59.45%	−16	−47.8	−49.31%	−65.80%	−35.8	−70.8	−7.52%	−72.82%	−3.4	−112	
C[C@@H](OC(=O)C(C)(C)Oc1ccc(C(=O)c2ccc(Cl)cc2)cc1)[C@H](N)C(=O)O.Cl [Fen-T Ester, L-threonine-fenofibric acid ester, hydrochloride]	−23.21%	−37.68%	−18.2	−36.4	−35.00%	−63.71%	−23.8	−77.6	−68.45%	−75.04%	−63.8	−88.4	anti-hyperlipidemic properties (listed as Fenofibric Acid-L-Threonine ester, hydrochloride): overall superior anti-hyperlipidemic properties; anti-hyperlipidemic properties (listed as L-Threonine ester, hydrochloride): dose dependent decrease in triglycerides
CC(C)OC(=O)C(C)(C)Oc1ccc(C(=O)c2ccc(Cl)cc2)cc1 [Fenofibrate, reference compound]	−15.21%	−45.86%	−10.8	−51	−22.95%	−66.06%	−13.4	−87.6	−61.26%	−73.51%	−40.8	−71.6	Triglycerides, Day 7 (50 mg/kg group): 150 mg/dL; Triglycerides, Day zero (50 mg/kg group): 95 mg/dL and 92 mg/dL and 80 mg/dL; Triglycerides, Day 14 (50 mg/kg): 101 mg/dL and 76 mg/dL and 73 mg/dL; Triglycerides, Day zero (100 mg/kg group): 110 mg/dL and 115 mg/dL and 96 mg/dL; Triglycerides, Day 14 (100 mg/kg): 62 mg/dL and 69 mg/dL and 93 mg/dL; Triglycerides, Day 7 (200 mg/kg group): 90 mg/dL and 106 mg/dL and 125 mg/dL; Triglycerides, Day zero (200 mg/kg group): 144 mg/dL and 56 mg/dL and 58 mg/dL; Triglycerides, Day 14 (200 mg/kg): 48 mg/dL and 51 mg/dL and 38 mg/dL
CC(C)(Oc1ccc(C(=O)c2ccc(Cl)cc2)cc1)C(=O)OC[C@H](N)C(=O)O.Cl [L-Serine Ester of Fenofibric Acid, L-serine-fenofibric acid ester, hydrochloride]	−61.64%	−72.82%	−54	−90	−44.10%	−67.90%	−31.4	−84.2	−33.23%	−63.27%	−20.8	−72	Triglycerides, Day 7 (50 mg/kg group, hydrochloride): 148 mg/dL and 145 mg/dL and 127 mg/dL; Triglycerides, Day zero (50 mg/kg group, hydrochloride): 88 mg/dL and 94 mg/dL and 100 mg/dL; Triglycerides, Day 14 (50 mg/kg, hydrochloride): 86 mg/dl (2×) and 73 mg/dl; Triglycerides, Day 7 (100 mg/kg group, hydrochloride): 100 mg/dL and 183 mg/dL; Triglycerides, Day zero (100 mg/kg group, hydrochloride): 109 mg/dL and 129 mg/dL and 71 mg/dL; Triglycerides, Day 14 (100 mg/kg, hydrochloride): 46 mg/dL and 69 mg/dL and 47 mg/dL; Triglycerides, Day 7 (200 mg/kg group, hydrochloride): 240 mg/dL and 158 mg/dL and 77 mg/dL; Triglycerides, Day zero (200 mg/kg group, hydrochloride): 74 mg/dL and 81 mg/dL and 42 mg/dL; Triglycerides, Day 14 (200 mg/kg, hydrochloride): 83 mg/dL and 61 mg/dL and 46 mg/dL
